Laboratory results: patent publication US7037502B2, “Peptide with the amino acid sequence of KVLDGQDP having anti-inflammatory properties” (priority 2001, dated 2006)
“Also recorded” adds a separate entry of the source.

Assays:
[1] = test system: allergic conjunctivitis to ragweed (Ambrosia trifida); experiment: Allergic conjunctivitis to ragweed in guinea pig: clinical scores (conjunctival edema and redness); format: in vivo, Hartley female guinea pig; conditions: for Statistical evaluation of clinical scores (Mann-Whitney test), P compared to Dexamethasone / Statistical evaluation of clinical scores (Mann-Whitney test), P compared to Livostine / Statistical evaluation of clinical scores (Mann-Whitney test), P compared to No treatment group: conjunctival edema and redness score 0-4+, 20 min after allergen challenge, 12 eyes per group, eye drops; for Clinical signs (conjunctival redness and edema scores), result in words: n=12, P<0.01, SD<10%, Mann-Whitney test
Method: The peptides of the present invention were analyzed in experimental model of allergic conjunctivitis to ragweed (giant ragweed; Ambrosia trifida) in guinea pig. Hartley strain of guinea pig was selected according to previous reports of conjunctival anaphylaxis (Calonge M., et al., Acta Ophthalmol 68; 470–476, 1990) and females were chosen based on the sex dimorphism of ocular mucosal immunity with the protective role of male hormones (Saruya S., et al., Act Soc Ophthalmol Jap 72; 833–845, 1968). The conjunctival redness and edema are main signs of seasonal allergic conjunctivitis and eosionphil infiltration is the hallmark of the conjunctival histology in patients with allergic conjunctivitis (Abelson M B., et al., Arch Ophthalmol. 101; 555–556, 1983; Butrus S I., et al., Int. Ophthalmol. Clin. 28; 324–328, 1988) 86 Hartley female guinea pigs, 200–250 g were housed in the animal facilities of the Asan Institute for Life Sciences (Korea), given guinea pig chow and water ad libitum, and cared for in accordance with the Declaration of Helsinki and the National Institute of Health Guide to the Care and Use of the Laboratory Animals (Korea). […] On day 15, immunized guinea pigs were divided 14 groups, 6 for each group. 11 anti-inflammatory peptides including new recombinants, dexamethasone eye drop (Maxidex, 0.1% dexamethasone, Alcon) and anti-histamine eye drop (Livostin, levocabastine, Janssen) were used for 13 groups, and no treatment for one group. Normal controls were employed as 6 non-immunized and non-treated guinea pigs. […] All the procedures were followed experimental model of allergic conjunctivitis described by Merayo-Lloves et al (Experimental model of allergic conjunctivitis to ragweed in guinea pig. Curr. Eye Res. 14; 487–494, 1995). Anti-inflammatory peptides were resolved in sterile saline (100 μmol/40 μl concentration). All peptides and dexamethasone eye solutions were challenged 3 hour prior to the last pollen application on day 15, 10 minutes after pollen application, and 4 times thereafter at the 3 hour interval. Conjunctival edema and redness were judged in room light and under an operating microscope (Zeiss, Germany). The evaluation was performed in a masked fashion at 20 min after allergen challenge and each clinical sign was scored on a scale 0–4+ (0 absent, 1+ minimal, 2+ mild, 3+ moderate, 4+ severe), adapted for guinea pig from previous report (Merayo-Lloves et al: Experimental model of allergic conjunctivitis to ragweed in guinea pig. Curr. Eye Res. 14; 487–494, 1995). Clinical scores of each group (12 eyes in each group) were analyzed.

[2] = test system: eosinophil infiltration of conjunctiva; experiment: Allergic conjunctivitis to ragweed in guinea pig: histology, eosinophil count in conjunctiva; format: in vivo, Hartley female guinea pig; conditions: for Statistical evaluation of eosinophil count (Mann-Whitney test), P compared to Dexamethasone / Statistical evaluation of eosinophil count (Mann-Whitney test), P compared to Livostine / Statistical evaluation of eosinophil count (Mann-Whitney test), P compared to No treatment group: eosinophils in three fields of conjunctiva (×400), 12 eyes per group, eye drops
Method: The peptides of the present invention were analyzed in experimental model of allergic conjunctivitis to ragweed (giant ragweed; Ambrosia trifida) in guinea pig. Hartley strain of guinea pig was selected according to previous reports of conjunctival anaphylaxis (Calonge M., et al., Acta Ophthalmol 68; 470–476, 1990) and females were chosen based on the sex dimorphism of ocular mucosal immunity with the protective role of male hormones (Saruya S., et al., Act Soc Ophthalmol Jap 72; 833–845, 1968). The conjunctival redness and edema are main signs of seasonal allergic conjunctivitis and eosionphil infiltration is the hallmark of the conjunctival histology in patients with allergic conjunctivitis (Abelson M B., et al., Arch Ophthalmol. 101; 555–556, 1983; Butrus S I., et al., Int. Ophthalmol. Clin. 28; 324–328, 1988)
86 Hartley female guinea pigs, 200–250 g were housed in the animal facilities of the Asan Institute for Life Sciences (Korea), given guinea pig chow and water ad libitum, and cared for in accordance with the Declaration of Helsinki and the National Institute of Health Guide to the Care and Use of the Laboratory Animals (Korea).
On day 15, immunized guinea pigs were divided 14 groups, 6 for each group. 11 anti-inflammatory peptides including new recombinants, dexamethasone eye drop (Maxidex, 0.1% dexamethasone, Alcon) and anti-histamine eye drop (Livostin, levocabastine, Janssen) were used for 13 groups, and no treatment for one group. Normal controls were employed as 6 non-immunized and non-treated guinea pigs. […] All the procedures were followed experimental model of allergic conjunctivitis described by Merayo-Lloves et al (Experimental model of allergic conjunctivitis to ragweed in guinea pig. Curr. Eye Res. 14; 487–494, 1995).
Anti-inflammatory peptides were resolved in sterile saline (100 μmol/40 μl concentration). All peptides and dexamethasone eye solutions were challenged 3 hour prior to the last pollen application on day 15, 10 minutes after pollen application, and 4 times thereafter at the 3 hour interval.
The orbits were excentrated after the animals were killed with CO2 asphyxia, and specimens were prepared for light microscopic examination. Sectioned specimens were stained with hematoxylin-eosin.
Eosinophils in the standardized fields of conjunctival epithelium, the immediate subepithelial, and the stroma were counted in three non-consecutive fields (magnification ×400) for each treatment in each experiment (12 eyes in each group).

PLA2 = PLA2 (Sus scrofa, UniProt P00592); conditions: Miele et al., Nature 335, 726-730, 1988; cited from earlier work
Sequence of PLA2 (P00592 23-146): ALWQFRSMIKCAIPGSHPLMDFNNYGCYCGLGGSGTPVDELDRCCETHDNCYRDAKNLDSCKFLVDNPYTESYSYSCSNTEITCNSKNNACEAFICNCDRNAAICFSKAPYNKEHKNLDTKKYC

Compound | Statistical evaluation of clinical scores (Mann-Whitney test), P compared to Dexamethasone [1] | Statistical evaluation of clinical scores (Mann-Whitney test), P compared to Livostine [1] | Statistical evaluation of clinical scores (Mann-Whitney test), P compared to No treatment group [1] | Statistical evaluation of eosinophil count (Mann-Whitney test), P compared to Dexamethasone [2] | Statistical evaluation of eosinophil count (Mann-Whitney test), P compared to Livostine [2] | Statistical evaluation of eosinophil count (Mann-Whitney test), P compared to No treatment group [2] | Clinical signs (conjunctival redness and edema scores), result in words [1] | Anti-inflammatory activity, overall conclusion in words ([2]; allergic conjunctivitis model in guinea pig, summary of Example 2, listed as SEQ ID NO:3) | Histological signs (eosinophil infiltration), result in words ([2]; n=12, P<0.01, SD<10%, Mann-Whitney test) | PLA2 inhibitor activity, in words (PLA2)
GQDP [Peptide E3] | 0.000 | 0.002 | 0.016 | 0.007 | 0.000 | 0.001 | – | – | – | –
RKLMEI (PKLMEI) [Peptide P1] | 0.001 | 0.003 | 0.009 | 0.000 | 0.000 | 0.002 | statistically significant difference from other groups | – | – | –
SHLRKVFDK [Peptide A1, known peptide, antiflammin] | 0.007 | 0.009 | 0.003 | 0.004 | 0.006 | 0.000 | statistically significant difference from other groups | – | – | –
DPVKG [Peptide E2, synthetic peptide of the invention] | 0.050 | 0.039 | 0.000 | 0.028 | 0.060 | 0.000 | statistically significant difference from other groups | excellent anti-inflammatory activity in comparison with other known peptide sequences; also recorded: much higher activity than the steroidal anti-inflammatory dexamethasone | statistically significant difference from other groups | –
MQMKKVLDS [Peptide A3, known peptide, antiflammin] | 0.089 | 0.043 | 0.000 | 0.000 | 0.000 | 0.007 | statistically significant difference from other groups | – | – | –
PVKG [Peptide E1] | 0.017 | 0.012 | 0.001 | 0.000 | 0.000 | 0.002 | statistically significant difference from other groups | – | – | –
C[C@@H]1C[C@H]2[C@@H]3CCC4=CC(=O)C=C[C@]4(C)[C@@]3(F)[C@@H](O)C[C@]2(C)[C@@]1(O)C(=O)CO [Dexamethasone, dexamethasone] | – | – | 0.000 | – | 0.932 | 0.000 | – | – | – | –
KVLD [Peptide A4, core tetrapeptide of antiflammins] | 0.000 | 0.000 | 0.082 | 0.028 | 0.045 | 0.001 | – | – | – | inactive
HDMNKVLDL [Peptide A2, known peptide, antiflammin] | 0.002 | 0.003 | 0.382 | 0.000 | 0.000 | 0.161 | – | – | – | –
GTLAKKLT [Peptide P2] | 0.000 | 0.000 | 0.279 | 0.000 | 0.000 | 0.004 | – | – | – | –
